Source: the NIST ThermoML archive (doi:10.1021/acs.jced.9b00436)
Values joined by “and” are separate entries in the source; they are usually repeats but may differ in a detail not shown here. Equal entries are not always repeated.

Experiments:
[1] = an = ratio of the nth substance listed; conditions: 100 kPa, Liquid; for viscosity: Falling or rolling sphere viscometry; for speed of sound: Frequency=5 MHz, Single path-length method; for mass density: Vibrating tube method
[2] = xn = mol fraction of the nth substance listed; conditions: 308 K; 100 kPa; Liquid; Frequency=5 MHz; Single path-length method; x2 = 0.333
[3] = 100 kPa, Liquid, Frequency=5 MHz, Single path-length method

NC(N)=O [urea] + C[N+](C)(C)CCO.[Cl-]
[1], a1 = 2
Conditions | mass density [kg/m3] | speed of sound | viscosity [mPa·s]
293 K | 1200.1 | 2045 m/s | 1372
298 K | 1198.1 | 2035 m/s | 985.1
303 K | 1194.5 | 2027 m/s | 527.3
308 K | 1191.7 | 2020 m/s and 2018 m/s | 397.2
313 K | 1188.7 | 2009 m/s | 238.1
318 K | 1185.5 | 2002 m/s | 181.6
323 K | 1183.1 | 1992 m/s | 119.8
328 K | 1179.2 | 1983 m/s | 98.2
333 K | 1177.3 | 1976 m/s | 68.6

Conditions | speed of sound [m/s]
[2] | 2016

C[N+](C)(C)CCO.[Cl-] [choline chloride] + OCC(O)CO
[1], a2 = 2
Conditions | mass density [kg/m3] | speed of sound [m/s] | viscosity [mPa·s]
293 K | 1194.3 | 1987 | 473
298 K | 1191.7 | 1975 | 364.4
303 K | 1188.5 | 1963 | 246.8
308 K | 1185.5 | 1952 | 193.8
313 K | 1182.7 | 1941 | 133.4
318 K | 1179.3 | 1932 | 110.4
323 K | 1177 | 1923 | 81.6
328 K | 1173.1 | 1910 | 70.2
333 K | 1171.3 | 1900 | 53.8

O=C(O)CC(=O)O [propanedioic acid] + C[N+](C)(C)CCO.[Cl-]
[1]
Conditions | mass density, a1 = 1 [kg/m3] | speed of sound, a1 = 2 [m/s] | viscosity, a1 = 2 [mPa·s]
293 K | 1185.1 | – | –
298 K | 1182.1 | – | –
303 K | 1178.6 | 1876 | 1128.6
308 K | 1175.6 | 1863 | 812.9
313 K | 1172.3 | 1851 | 597.3
318 K | 1169.1 | 1838 | 446.1
323 K | 1166 | 1825 | 342.3
328 K | 1162.7 | 1812 | –
333 K | 1160.3 | 1799 | –

CCCCCCCCCC(=O)O [decanoic acid] + CCCCCCCCCCCCCC[P+](CCCCCC)(CCCCCC)CCCCCC.[Cl-]
[1], a1 = 2
Conditions | mass density [kg/m3] | speed of sound [m/s] | viscosity [mPa·s]
293 K | 898.5 | 1437 | 346.3
298 K | 895.4 | 1418 | 260.5
303 K | 893.2 | 1402 | 197.8
308 K | 888.6 | 1384 | 151.6
313 K | 885.4 | 1366 | 117.9
318 K | 881.9 | 1349 | 93.7
323 K | 879.1 | 1333 | 76
328 K | 877.1 | 1314 | 62.8
333 K | 874.9 | 1303 | 52.8

C[N+](C)(C)CCO.[Cl-] [choline chloride] + OCCO
[1], a2 = 2
Conditions | mass density [kg/m3] | speed of sound [m/s] | viscosity [mPa·s]
293 K | 1117.1 | 1896 | 50
298 K | 1114.5 | 1882 | 40.4
303 K | 1111.4 | 1871 | 33.6
308 K | 1108.6 | 1860 | 27.9
313 K | 1105.7 | 1848 | 23.6
318 K | 1102.6 | 1837 | 19.9
323 K | 1100.1 | 1826 | 17.2
328 K | 1096.7 | 1813 | 14.6
333 K | 1094.7 | 1802 | 12.8

CCCCCCCC[N+](C)(CCCCCCCC)CCCCCCCC.[Br-] [methyltrioctylammonium bromide] + CCCCCCCCCC(=O)O
[1], a2 = 2
Conditions | mass density [kg/m3] | speed of sound [m/s] | viscosity [mPa·s]
293 K | 945.4 | 1406 | 806
298 K | 942.2 | 1393 | 572.6
303 K | 939.9 | 1375 | 411.4
308 K | 935.2 | 1357 | 305.2
313 K | 931.9 | 1341 | 226.2
318 K | 928.3 | 1326 | 171.5
323 K | 925.3 | 1312 | 132.4
328 K | 923.1 | 1297 | 104.5
333 K | 920.8 | 1283 | 83.7

CCCCCCCCCCCCCCCC [hexadecane]
[3]
Conditions | speed of sound [m/s]
293 K | 1356
298 K | 1340
303 K | 1325
313 K | 1287
318 K | 1268
323 K | 1248
328 K | 1227
333 K | 1210

CCCCCCCC[N+](CCCCCCCC)(CCCCCCCC)CCCCCCCC.[Br-] [tetraoctylammonium bromide] + CCCCCCCCCC(=O)O
[1], a2 = 2
Conditions | mass density [kg/m3] | speed of sound [m/s] | viscosity [mPa·s]
293 K | 933.7 | 1416 | 908.9
298 K | 930.6 | 1402 | 648
303 K | 928.4 | 1382 | 472
308 K | 923.7 | 1365 | 350
313 K | 920.5 | 1347 | 264.3
318 K | 916.9 | 1331 | 201.1
323 K | 913.9 | 1317 | 156.9
328 K | 911.8 | 1301 | 123.4
333 K | 909.5 | 1287 | 98.4

O [water]
[3]
Conditions | speed of sound [m/s]
298 K | 1501
303 K | 1511.5
313 K | 1527.5
318 K | 1535
323 K | 1542
328 K | 1547
333 K | 1550
